BigSolDB 2.1

O=[N+]([O-])c1cccc(Cl)c1Cl
solubility (mole fraction) (in ethanol, 278.15 K): 0.013 | solubility (mole fraction) (in ethanol, 280.65 K): 0.0149 | solubility (mole fraction) (in ethanol, 283.15 K): 0.0172 | solubility (mole fraction) (in ethanol, 285.65 K): 0.0203 | solubility (mole fraction) (in ethanol, 288.15 K): 0.0231 | solubility (mole fraction) (in ethanol, 290.65 K): 0.0257 | solubility (mole fraction) (in ethanol, 293.15 K): 0.0286 | solubility (mole fraction) (in ethanol, 295.65 K): 0.0322 | solubility (mole fraction) (in ethanol, 298.15 K): 0.0366 | solubility (mole fraction) (in ethanol, 300.65 K): 0.0418 | solubility (mole fraction) (in ethanol, 303.15 K): 0.0465 | solubility (mole fraction) (in methanol, 278.15 K): 0.0122 | solubility (mole fraction) (in methanol, 280.65 K): 0.0137 | solubility (mole fraction) (in methanol, 283.15 K): 0.0157 | solubility (mole fraction) (in methanol, 285.65 K): 0.0182 | solubility (mole fraction) (in methanol, 288.15 K): 0.0206 | solubility (mole fraction) (in methanol, 290.65 K): 0.0232 | solubility (mole fraction) (in methanol, 293.15 K): 0.0258 | solubility (mole fraction) (in methanol, 295.65 K): 0.0288 | solubility (mole fraction) (in methanol, 298.15 K): 0.0315 | solubility (mole fraction) (in methanol, 300.65 K): 0.0343 | solubility (mole fraction) (in methanol, 303.15 K): 0.0376 | solubility (mole fraction) (in water, 278.15 K): 1.6e-06 | solubility (mole fraction) (in water, 280.65 K): 2.03e-06 | solubility (mole fraction) (in water, 283.15 K): 2.45e-06 | solubility (mole fraction) (in water, 285.65 K): 2.88e-06 | solubility (mole fraction) (in water, 288.15 K): 3.91e-06 | solubility (mole fraction) (in water, 290.65 K): 4.85e-06 | solubility (mole fraction) (in water, 293.15 K): 5.85e-06 | solubility (mole fraction) (in water, 295.65 K): 6.98e-06 | solubility (mole fraction) (in water, 298.15 K): 8.68e-06 | solubility (mole fraction) (in water, 300.65 K): 1.07e-05 | solubility (mole fraction) (in water, 303.15 K): 1.29e-05
